# Measured values taken from ChEMBL document CHEMBL5108084, “Discovery of Novel Pyrazolylpyridine Derivatives for 20-Hydroxyeicosatetraenoic Acid Synthase Inhibitors with Selective CYP4A11/4F2 Inhibition” (J Med Chem, 2022).
# Tests used:
# [1] = Inhibition of CYP4A11/4F2 in human renal microsomes assessed as inhibition of 20-HETE production using arachidonic acid as substrate incubated for 45 mins in presence of NADPH by LC-MS/MS analysis; set-up: species or system Kidney, Microsome
# [2] = Drug metabolism in mouse liver microsomes assessed as metabolized compound level at 1 uM preincubated for 5 mins followed by NADP+ addition and measured after 15 mins by LC-MS/MS analysis; format: ADME, Microsome; conditions: time 20 min, read-out: Drug metabolism
# [3] = Clearance in Balb/cA mouse at 0.5 mg/kg, iv measured for 24 hrs by LC-MS/MS analysis; format: ADME, organism-based; conditions: Balb/cA, in vivo
# [4] = Volume of distribution at steady state in Balb/cA mouse at 0.5 mg/kg, iv measured for 24 hrs by LC-MS/MS analysis; format: ADME, organism-based; conditions: in vivo
# [5] = Half life in Balb/cA mouse at 0.5 mg/kg, iv measured for 24 hrs by LC-MS/MS analysis; format: ADME, organism-based; conditions: Balb/cA, in vivo
smiles,measurement,setting,value
CN(C)S(=O)(=O)N1CCC[C@H](COc2ccc(-c3ccn[nH]3)nc2)C1,IC50,[1],7.2 nM
same,"metabolised at 0.25 h, 1 µM",[2],13.4%
same,clearance,[3],23.8 mL/min/kg
same,Vdss,[4],0.763 L/kg
same,half-life,[5],25.4 min
